Laboratory results reported in ChEMBL document CHEMBL3392978 (Eur J Med Chem, 2015).

How the values were obtained:
MDA-MB-453 [1] = test: Cytotoxicity against human MDA-MB-453 cells assessed as reduction in cell viability after 72 hrs by MTT assay; assay type: functional, cell-based; conditions: MDA-MB-453, 72 h
SW480 [2] = test: Cytotoxicity against human SW480 cells assessed as reduction in cell viability after 72 hrs by MTT assay; assay type: functional, cell-based; conditions: SW480, 72 h
MCF7 [3] = test: Growth inhibition of human MCF7 cells at 10 uM after 72 hrs by MTT assay; assay type: functional; conditions: MCF7, 72 h, read-out: GI
SW480 [4] = test: Growth inhibition of human SW480 cells at 10 uM after 72 hrs by MTT assay; assay type: functional; conditions: SW480, 72 h, read-out: GI
HepG2 [5] = test: Growth inhibition of human HepG2 cells at 10 uM after 72 hrs by MTT assay; assay type: functional; conditions: HepG2, 72 h, read-out: GI
A-375 [6] = test: Growth inhibition of human A375 cells at 10 uM after 72 hrs by MTT assay; assay type: functional; conditions: A-375, 72 h, read-out: GI
MDA-MB-453 [7] = test: Growth inhibition of human MDA-MB-453 cells at 10 uM after 72 hrs by MTT assay; assay type: functional; conditions: MDA-MB-453, 72 h, read-out: GI
NCI-H522 [8] = test: Growth inhibition of human NCI-H522 cells at 10 uM after 72 hrs by MTT assay; assay type: functional; conditions: NCI-H522, 72 h, read-out: GI
A-375 [9] = test: Cytotoxicity against human A375 cells assessed as reduction in cell viability after 72 hrs by MTT assay; assay type: functional, cell-based; conditions: A-375, 72 h
NCI-H522 [10] = test: Cytotoxicity against human NCI-H522 cells assessed as reduction in cell viability after 72 hrs by MTT assay; assay type: functional, cell-based; conditions: NCI-H522, 72 h
HepG2 [11] = test: Cytotoxicity against human HepG2 cells assessed as reduction in cell viability after 72 hrs by MTT assay; assay type: functional, cell-based; conditions: HepG2, 72 h
MCF7 [12] = test: Cytotoxicity against human MCF7 cells assessed as reduction in cell viability after 72 hrs by MTT assay; assay type: functional, cell-based; conditions: MCF7, 72 h
Mus musculus [13] = test: Toxicity in human A375 cells xenografted nude Ncr mouse assessed as body weight changes at 50 mg/kg, ig dosed once daily for 23 days; assay type: organism-based, A-375; parameters: dose 50 mg/kg, route intragastric; conditions: in vivo, po, 552 h
[14] = target: Serine/threonine-protein kinase B-raf (Homo sapiens, UniProt P15056); test: Inhibition of BRAF (unknown origin) incubated for 15 mins by fluorescence based assay
Sequence of Serine/threonine-protein kinase B-raf (P15056 whole entry): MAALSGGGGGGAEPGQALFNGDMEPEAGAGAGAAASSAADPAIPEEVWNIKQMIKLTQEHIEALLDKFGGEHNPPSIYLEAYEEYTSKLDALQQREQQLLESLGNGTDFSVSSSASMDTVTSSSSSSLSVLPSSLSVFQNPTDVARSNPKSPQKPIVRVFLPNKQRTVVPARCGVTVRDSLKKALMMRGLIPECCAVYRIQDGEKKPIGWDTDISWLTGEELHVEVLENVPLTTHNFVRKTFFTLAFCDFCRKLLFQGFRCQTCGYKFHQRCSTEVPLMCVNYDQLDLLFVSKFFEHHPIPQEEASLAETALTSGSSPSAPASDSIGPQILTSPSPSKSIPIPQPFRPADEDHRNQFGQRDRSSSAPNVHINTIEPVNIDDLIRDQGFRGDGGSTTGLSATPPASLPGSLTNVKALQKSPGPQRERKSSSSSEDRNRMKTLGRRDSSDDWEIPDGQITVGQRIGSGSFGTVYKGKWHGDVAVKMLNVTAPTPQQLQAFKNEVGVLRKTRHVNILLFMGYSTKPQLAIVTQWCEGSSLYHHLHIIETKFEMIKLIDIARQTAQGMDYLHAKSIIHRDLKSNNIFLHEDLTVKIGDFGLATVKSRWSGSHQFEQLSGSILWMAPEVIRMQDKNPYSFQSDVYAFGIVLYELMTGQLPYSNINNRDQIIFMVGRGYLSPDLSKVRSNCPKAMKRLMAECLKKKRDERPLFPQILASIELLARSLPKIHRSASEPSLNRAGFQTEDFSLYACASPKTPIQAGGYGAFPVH

[15] = target: Vascular endothelial growth factor receptor 2 (Homo sapiens, UniProt P35968); test: Inhibition of human recombinant VEGFR2 incubated for 1 hr using [gamma-32P]ATP by top count assay
Sequence of Vascular endothelial growth factor receptor 2 (P35968 whole entry): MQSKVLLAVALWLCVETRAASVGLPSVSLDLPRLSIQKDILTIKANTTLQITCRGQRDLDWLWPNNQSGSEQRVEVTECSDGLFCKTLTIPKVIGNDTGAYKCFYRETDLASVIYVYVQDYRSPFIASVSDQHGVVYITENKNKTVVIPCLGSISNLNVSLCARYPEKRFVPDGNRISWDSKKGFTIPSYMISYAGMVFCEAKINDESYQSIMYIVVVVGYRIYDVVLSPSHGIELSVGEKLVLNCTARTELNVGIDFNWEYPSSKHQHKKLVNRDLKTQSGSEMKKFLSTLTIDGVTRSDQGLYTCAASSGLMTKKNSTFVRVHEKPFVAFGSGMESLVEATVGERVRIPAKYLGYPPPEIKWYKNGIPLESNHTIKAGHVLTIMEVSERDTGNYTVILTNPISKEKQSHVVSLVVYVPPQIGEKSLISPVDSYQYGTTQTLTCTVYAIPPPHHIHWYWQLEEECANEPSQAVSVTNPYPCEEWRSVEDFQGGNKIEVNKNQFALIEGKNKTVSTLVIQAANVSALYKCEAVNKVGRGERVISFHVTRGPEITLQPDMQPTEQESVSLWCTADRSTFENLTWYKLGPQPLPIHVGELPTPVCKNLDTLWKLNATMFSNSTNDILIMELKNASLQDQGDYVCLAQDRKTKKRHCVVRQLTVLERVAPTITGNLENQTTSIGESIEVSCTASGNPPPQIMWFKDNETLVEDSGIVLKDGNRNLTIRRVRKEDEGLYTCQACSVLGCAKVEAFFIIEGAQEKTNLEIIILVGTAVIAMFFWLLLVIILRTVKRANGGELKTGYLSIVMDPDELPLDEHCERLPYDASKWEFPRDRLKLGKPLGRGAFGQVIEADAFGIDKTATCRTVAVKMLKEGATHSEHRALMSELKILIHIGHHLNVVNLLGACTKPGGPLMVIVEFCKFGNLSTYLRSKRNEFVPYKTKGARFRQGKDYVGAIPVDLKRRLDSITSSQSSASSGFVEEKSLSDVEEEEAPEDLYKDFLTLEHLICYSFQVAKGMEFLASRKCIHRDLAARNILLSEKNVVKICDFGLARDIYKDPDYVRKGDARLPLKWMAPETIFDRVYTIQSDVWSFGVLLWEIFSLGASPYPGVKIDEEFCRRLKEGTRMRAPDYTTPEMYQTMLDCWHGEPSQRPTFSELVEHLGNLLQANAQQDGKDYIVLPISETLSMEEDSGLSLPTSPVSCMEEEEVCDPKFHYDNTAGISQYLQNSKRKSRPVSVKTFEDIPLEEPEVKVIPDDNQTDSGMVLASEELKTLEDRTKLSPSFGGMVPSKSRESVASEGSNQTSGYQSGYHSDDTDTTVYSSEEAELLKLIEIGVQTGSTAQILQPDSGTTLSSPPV

Mus musculus [16] = test: Toxicity in human A375 cells xenografted nude Ncr mouse assessed as induction of adverse events at 50 mg/kg, ig dosed once daily for 23 days; assay type: organism-based, A-375; parameters: dose 50 mg/kg, route intragastric; conditions: in vivo, po, 552 h
A-375 [17] = test: Antitumor activity against human A375 cells xenografted in nude Ncr mouse assessed as reduction in tumor growth at 50 mg/kg, ig dosed once daily for 23 days; assay type: functional; conditions: A-375, po, 552 h, route intragastric, read-out: TGI

Cc1cc(C(=O)Nc2ccc(Cl)c(C(=O)Nc3ccc(-c4ncc[nH]4)nc3)c2)ccc1Cl
IC50 (MDA-MB-453 [1]): 8.76 µM
IC50 (SW480 [2]): 3.57 µM
inhibition of growth at 10 µM (MCF7 [3]): 43.7%
inhibition of growth at 10 µM (SW480 [4]): 65.7%
inhibition of growth at 10 µM (HepG2 [5]): 52.8%
inhibition of growth at 10 µM (A-375 [6]): 43.9%
inhibition of growth at 10 µM (MDA-MB-453 [7]): 51.1%
inhibition of growth at 10 µM (NCI-H522 [8]): 66.7%
IC50 (A-375 [9]): 12.6 µM
IC50 (NCI-H522 [10]): 2.09 µM
IC50 (HepG2 [11]): 11.5 µM
IC50 (MCF7 [12]): 16.3 µM

O=C(Nc1ccc(Cl)c(C(=O)Nc2ccc(-c3ncc[nH]3)nc2)c1)c1ccc(Cl)c(C(F)(F)F)c1
Activity (Mus musculus [13]): Non-toxic
IC50 (MDA-MB-453 [1]): 8.35 µM
inhibition of growth at 10 µM (MCF7 [3]): 41.5%
inhibition of growth at 10 µM (SW480 [4]): 38.8%
inhibition of growth at 10 µM (HepG2 [5]): 54.2%
inhibition of growth at 10 µM (A-375 [6]): 62.6%
IC50 [14]: 0.65 µM
inhibition of growth at 10 µM (MDA-MB-453 [7]): 49.3%
inhibition of growth at 10 µM (NCI-H522 [8]): -3.2%
IC50 (A-375 [9]): 4.26 µM
IC50 (HepG2 [11]): 13.8 µM
IC50 [15]: 18.6 µM
IC50 (MCF7 [12]): 15.3 µM
Activity (Mus musculus [16]): Non-toxic
inhibition in vivo at 50 mg/kg (A-375 [17]): 35.7%

O=C(Nc1ccc(Cl)c(C(F)(F)F)c1)c1ccc(Cl)c(C(=O)Nc2ccc(-c3ncc[nH]3)nc2)c1
Activity (Mus musculus [13]): Non-toxic
IC50 (MDA-MB-453 [1]): 7.96 µM
inhibition of growth at 10 µM (MCF7 [3]): 31.3%
inhibition of growth at 10 µM (SW480 [4]): 33.4%
inhibition of growth at 10 µM (HepG2 [5]): 63.4%
inhibition of growth at 10 µM (A-375 [6]): 64.4%
IC50 [14]: 0.531 µM
inhibition of growth at 10 µM (MDA-MB-453 [7]): 52.9%
inhibition of growth at 10 µM (NCI-H522 [8]): 0.2%
IC50 (A-375 [9]): 2.93 µM
IC50 (HepG2 [11]): 3.21 µM
IC50 [15]: 23.4 µM
Activity (Mus musculus [16]): Non-toxic
inhibition in vivo at 50 mg/kg (A-375 [17]): 42.5%
